Assay results taken from patent US20220039395A1, “INSECT CONTROL AGENTS” (priority 2018, published 2022).
Entries after “also recorded” stand apart in the source; their conditions may differ. Ends that are not written are not given here. Alexa‑488‑C5‑maleimide = fluorescent Alexa 488 label coupled to Cys via C5-maleimide

Legend:
[1] = system: M. persicae gut, brain and ventral nerve cord; test: Receptor mapping assay using fluorescently labelled neuropeptides; assay type: binding, Myzus persicae; details: labelled neuropeptide 10^−7 M; for site of binding in the gut: displaced by excess unlabelled peptide
Method: (§1) Aphids were cold anesthetized and the tissue of interest dissected out in a 1:1 solution of Schneider's insect medium and optimized saline.^7,42 The dissected tissue was mounted on a poly-L-lysine-covered 35 mm glass bottom dish containing 1:1 saline. Nuclei were stained via incubation in DAPI (1 μg ml^−1) and a baseline image taken to determine the level of autofluorescence and adjust exposure settings accordingly. All images were recorded on an inverted confocal microscope (Zeiss LSM 510 Meta). A labelled neuropeptide (10^−7 M) was subsequently added and the sample imaged. The concentration of 10^−7 M was chosen for labelled neuropeptides because it represents the minimal concentration required to produce a saturated receptor response, thereby optimizing the conditions for optical detection of ligand-receptor complexes.^7 Following imagining, unlabelled neuropeptide (10^−5 M) was added to the sample and a time-lapse experiment set up to determine if the unlabelled neuropeptide outcompeted the labelled neuropeptide, thus reaffirming the detection of the ligand-receptor complexes. Images were collected every 30 s for a duration of 20-30 m. All images were exported as JPEG files and subsequently viewed in FIJI and Microsoft Illustrator.

[2] = system: M. rosae gut, brain and ventral nerve cord; test: as above; assay type: binding, Macrosiphum rosae; details: labelled neuropeptide 10^−7 M; for site of binding in the gut: displaced by excess unlabelled peptide
Method: as §1

aphid = test: Topical application of peptides to aphid abdomen by microinjector, mortality; assay type: in vivo; details: 9 nl of 1×10^−5 M peptide in Armid FMPC applied topically to abdomen
Method: For peptides 2315, 2320 and 2125, peptides were diluted individually in an Armid FMPC formulation (AkzoNobel Surface Chemistry, Stenungsund, Sweden) to concentration of 1×10^−5 M. Using a Nanoject II Auto-Nanoliter micro-injector, 9 nl of the peptide solution was applied topically to the abdomen of a pre-reproductive adult aphid, coating the cuticle in the solution. Aphids were returned to the host plant and allowed to recover for 24 h before use in experiments. Control aphids were topically applied with 9 nl of the Armid FMPC formulation and, once again, allowed to recover for 24 h on the host plant before use in experiments.
Peptides were applied topically to insect abdomen by microinjector and the insects returned to the plant. Mortality was assessed after 24 hours. Separate controls were performed for each experiment. A group of 9 or 10 insects was used for each time point, and all experiments were performed 3 times.

Aphids = test: Feeding with peptides in artificial diet, mortality without other stress; assay type: in vivo, Myzus persicae; details: for Dead (48 h) / Dead (72 h) / Dead (96 h) / Dead (120 h) / Dead (144 h): artificial diet supplemented with peptide; for effect on mortality in the absence of additional stressors: no additional stress conditions
Method: A standard artificial diet for M. persicae was produced as described in Van Emden (2009) and provided the basal diet to which neuropeptide analogues were added for screening purposes. Neuropeptide analogues were diluted individually in the artificial diet to a pre-determined recommended concentration as follows: 1895 (3.5×10^−5 M) and 2019 (2.0×10^−5 M).
Feeding apparatus were constructed using a set-up developed by Sadeghi et al (2009). For this, a piece of Parafilm was stretched over a Plexiglas ring (h=4 cm, Ø=3 cm) and 100 μl of the artificial diet containing the desired neuropeptide analogue was pipette onto the Parafilm membrane. A second piece of Parafilm, stretched to 4 times the original thickness, was stretched over the original layer, sandwiching the artificial diet between two layers of Parafilm. A strip of Parafilm was wrapped around the circumference of the Plexiglas ring, sealing in the diet. A plastic ring (h=1.2 cm, Ø=3.4 cm) was subsequently placed over the Parafilm layer, creating a walled chamber in which to house test aphids in contact with the Parafilm layer containing the artificial diet. Finally, a small Petri dish (h=1 cm, Ø=3.6 cm), modified for ventilation with net cloth, was placed on top of each feeding apparatus to prevent aphid escape.
To obtain aphids for use in experiments, reproducing anholocyclic adults were placed on individual excised leaves of Chinese cabbage at densities of 5 adults per leaf and allowed to reproduce for 24 h. The stem of each excised leaf was held within a 0.5 mL Eppendorf tube containing water via a punctured hole in the Eppendorf lid, and placed individually within a microcage (L=4 cm, Ø=9.5 cm). Following 24 h, adults were removed and resultant first instar nymphs (<1 day old and synchronised in age to within 24 h) retained. Nymphs were allowed to develop on the Chinese cabbage for 5 days. On day 5, (3rd instar) nymphs were transferred onto the artificial diet containing a neuropeptide analogue at densities of 1 per feeding chamber and monitored daily until death. Aphids were transferred to fresh artificial diet (containing neuropeptide analogue) every 5 days. Life history traits recorded include age at first reproduction, number of nymphs produced per 24 h period, and lifespan. From these parameters, lifetime fecundity and daily fecundity were calculated. Control groups were set up involving aphids reared on the host plant, an artificial diet without a neuropeptide analogue, and an artificial diet containing the native CAPA neuropeptide.
Aphids were reared on artificial diet, alone or supplemented with peptide 2129, 2315, 2316 or 2320. A control group (no test peptide) was reared on a host plant. No other stress conditions were applied.
For peptides 2315, 2316 and 2320, mortality was assessed at 48, 72, 96, 120 and 144 hours. A group of 9 or 10 insects was used for each time point, and all experiments were performed at least 4 times.

Myzus persicae [3] = test: Topical application by spraying, air brush; assay type: in vivo; details: 750 μl, positive control 28.3 μM, counted 48 hours post spray
Method: (§2) Aphids were exposed to test peptides in the absence of additional external stress conditions.
(§3) Brassica rapa (Chinese cabbage; Wong Bok) were infested with 30 adult Myzus persicae aphids per plant. Aphids were left at least 2 hours to settle and begin feeding from the host plant.
Spraying took place inside an externally vented fume cupboard. […] To ensure spray tracking, all sprayed solutions had amaranth dye added, allowing the full surface of the plant to be evenly coated with the aerosolised compound.
The plants to be sprayed were placed inside a plastic disposal bag, inside the fume cupboard. This was used to control the area exposed to the aerosolised liquid, to avoid extensive spraying and cleaning inside the fume cupboard. The bag was further lined with absorbent paper towel to again help contain and control spray.
Each experiment had three controls:
i) no vehicle or peptide air spray only, negative control to assess effect of spraying on aphid ability to remain attached to the plant; ii) vehicle spray only (Tween 24 0.1%); and iii) Imidacloprid positive control (28.3 μM).
Imidacloprid was always applied last to prevent any possibility of stray pesticide being left inside the disposal bag and contaminating a test peptide applied plant.
Spray volumes for all solutions for this experiment 750 μl.
A clean air brush (ABEST AC06k30) was loaded with 750 μl of peptide solution diluted in […] 0.1% vehicle. For this experiment there were three test conditions: 1895 alone (1×10^−5M); 2129 alone (1×10^−5M); and a simultaneous co-application of 1895+2129 together (1×10^−5M of each peptide). During application, the air brush was held within the plastic bag and the compressor turned on. The air brush was then gently sprayed back and forth across the plant. […]
Post peptide application, each condition was placed into its own individual Bugdorm (Watkins and Doncaster, 44545), to prevent repulsed or displaced aphids moving from one condition to another. Numbers of alive and dead aphids on the plant were counted 48 hours post spray, and the presence of any fresh nymphs noted. […]

Myzus persicae [4] = test: Topical application by spraying, Potter Spray Tower; assay type: in vivo; details: 3000 μl, positive control 28.3 μM, counted 48 hours post spray
Method: as §2, §3
Spraying took place inside a designated spray room. To ensure spray tracking, all sprayed solutions had amaranth dye added.
Potter Spray Tower (Burkard Manufacturing) was ‘primed’ by spraying 1000 μl of liquid coating the inside of the tower. Two controls were used:
i) vehicle spray only (Croda ATPlus UEP 100 LQ-(CQ) 0.1% v/v); and ii) Imidacloprid positive control (28.3 μM).
Imidacloprid was always applied last and via a second, separate, Potter Tower, to prevent any possibility of stray pesticide being left inside the tower and contaminating a test peptide-applied plant.
Spray volumes for all solutions were 3000 μl. The 6.9 mm spray head was loaded with 3000 μl of a 1×10^−5M peptide solution diluted in ATPlus 0.1%. After spraying was completed the plant was allowed to rest on the spray platform for 30 seconds to allow settling of the sprayed chemical.
For this experiment there were three test conditions: 1895 alone (1×10^−5M); 2129 alone (1×10^−5M); and a simultaneous co-application of 1895+2129 together (1×10^−5M of each peptide).
Post peptide application, each condition was placed into its own individual Bugdorm (Watkins and Doncaster, 44545), to prevent repulsed or displaced aphids moving from one condition to another. Numbers of alive and dead aphids on the plant were counted 48 hours post spray, and the presence of any fresh nymphs noted. Plants were watered prior to spraying but not afterwards to eliminate the possibility of drowning any aphids present or washing off the sprayed liquid.
Post spraying, the spray head was filled with over 3000 μl of 70% ethanol and sprayed until empty. The spray head was carefully removed and rinsed with 70% ethanol as some amaranth dye was observed on the spray head. […]

Compound | staining of brain and ventral nerve cord (VNC) [1] | site of binding in the gut [1] | staining of brain and ventral nerve cord (VNC) [2] | site of binding in the gut [2] | Dead (24 h) (aphid) | Dead (48 h) (Aphids) | Dead (72 h) (Aphids) | Dead (96 h) (Aphids) | Dead (120 h) (Aphids) | Dead (144 h) (Aphids) | effect on mortality in the absence of additional stressors (Aphids) | effect on mortality in the absence of additional stressors (Aphids; listed as 2135) | % Lethality (Myzus persicae [3]) | % Lethality (Myzus persicae [4])
TMR-C5-maleimide-CGANMGLYAFPRVamide (TMR-C5-maleimide on Cys; C-terminal amide; labelled CAPA-1) [CAPA-1-F] | no sites of receptor binding in either the brain or the VNC | bind to the circular and longitudinal muscles of the aphid gut | no sites of receptor binding in either the brain or the VNC | bind to the circular and longitudinal muscles of the aphid gut | – | – | – | – | – | – | – | – | – | –
ASG[βhL]VAFPRV-NH2 [compound 2315] | – | – | – | – | 33.3% | 45.0% | 60.0% | 70.0% | 77.5% | 80.0% | increase mortality in the absence of additional stressors | increase mortality in the absence of additional stress conditions | – | –
O=[N+]([O-])NC1=NCCN1Cc1ccc(Cl)nc1 [Imadocloprid, Imidacloprid, reference compound] | – | – | – | – | – | – | – | – | – | – | – | – | 100% | 93%
Alexa-488-C5-maleimide-CNSVVLGKKQRFHSWGamide (C(Alexa‑488‑C5‑maleimide)NSVVLGKKQRFHSWG-NH2) [kinin-F] | staining apparent in a bilateral symmetrical ‘ladder’ of neuronal clusters | bind to the circular and longitudinal muscles of the aphid gut | no specific staining | bind to the circular and longitudinal muscles of the aphid gut | – | – | – | – | – | – | – | – | – | –
ASG[βhL]V[βA]FPRV-NH2 [compound 2320] | – | – | – | – | 33.3% | 70% | 80% | 80% | 80% | 85% | increase mortality in the absence of additional stress conditions; also recorded: increase mortality in the absence of additional stressors | – | – | –
